Results: patent publication US20200255492A1, “LEPTIN PEPTIDES AND THEIR USE FOR TREATING NEUROLOGICAL DISORDERS” (UNIVERSITY OF DUNDEE, priority 2017, published 2020)

Assays:
[1] = test system: juvenile hippocampal slices; assay: Subthreshold LFS: Aβ1-42-induced LTD; type: cell-based, Sprague Dawley rats; conditions: for synaptic transmission after LFS (magnitude of Aβ1-42-induced LTD): 10 nM plus Aβ1-42; for basal synaptic transmission: 10 nM
Description: Parasagittal hippocampal slices (300 μm) were prepared from either P13-21 or 12-24-week-old male Sprague Dawley rats as previously (Moult et al. 2010). Brains were rapidly removed and placed in ice-cold artificial CSF (aCSF; bubbled with 95% O2 and 5% CO2) containing the following (in mm): 124 NaCl, 3 KCl, 26 NaHCO3, 1.25 NaH2PO4, 2 CaCl2, 1 MgSO4, and 10 d-glucose. Once prepared, parasagittal slices were allowed to recover at room temperature in oxygenated aCSF for 1 h before use. Slices were transferred to a submerged chamber maintained at room temperature and perfused with artificial cerebrospinal fluid at 2 ml min^−1. Standard extracellular recordings were used to monitor evoked field excitatory postsynaptic potentials (fEPSP) from stratum radiatum. The Schaffer collateral-commissural pathway was stimulated (constant voltage; 0.1 ms) at 0.033 Hz, using a stimulus intensity that evoked a peak amplitude ˜50% of the maximum. Synaptic potentials were low pass filtered at 2 kHz and digitally sampled at 10 kHz. The fEPSP slope was measured and expressed relative to baseline. Synaptic records are the average of 4 consecutive responses and stimulus artefacts are blanked for clarity. Recordings were made using an Axopatch 200B amplifier and analyzed using LTP v2.4 software. In synaptic plasticity studies, the degree of potentiation was calculated 30-35 min after HFS and expressed as a percentage of baseline±standard error of mean (SEM).
It is known that oligomeric Aβ promotes the induction of LTD (Shankar et al. 2008) and that exposure to a low concentration of leptin (10 nM) prevents facilitation of hippocampal LTD by Aβ1-42 (Doherty et al. 2013). Thus we assessed if either of the leptin fragments mirror leptin action. Initially we verified that leptin prevented Aβ1-42-induced LTD. […] Furthermore, leptin (10 nM) reduced the magnitude of Aβ1-42-induced LTD such that LFS depressed synaptic transmission to 101±5.3% of baseline in leptin-treated slices (n=4; P>0.05; FIG. 4B). To establish if the leptin fragments mirrored leptin action the effects of leptin (116-130) or leptin (22-56) were also examined.

C57/BL6 mice = assay: Object-place-context (OPC) recognition task, episodic-like memory; type: in vivo; conditions: 100 μl IP of 7.8 nM/ml 30 min prior to testing
Description: FIG. 7A, FIG. 7B, FIG. 7C and FIG. 7D show Leptin (116-130) enhances episodic-like memory. FIG. 7A: object-place-context task used to assess episodic-like memory. There are 2 sample phases in which mice are exposed to different copies of 2 different objects (star and hexagon) and allowed to explore for 3 min. In the test phase they see 2 new copies of 1 of the objects. The arrow points to the object that has not been previously seen in that place within that context. FIG. 7B: mean±SEM discrimination index for the 3 groups. *P<0.05. FIG. 7C: total exploration time in the test phase is not different between groups. FIG. 7D: exploration of the novel and familiar objects in the test phase; treatment with leptin or the leptin fragment (116-130) enhanced performance on the episodic-like memory test.
To further assess its therapeutic potential we next asked if this fragment has similar cognitive enhancing properties to the whole leptin molecule. Previous studies indicate that leptin enhances hippocampal-dependent memory (Oomura et al. 2006; Farr et al. 2006), whereas resistance to lep-tin results in impaired spatial memory (Li et al. 2002). We used the object-place-context (OPC) recognition task which models human episodic memory, the first cognitive process to be compromised in the early stages of AD (Swainson et al. 2001). […]

| Substance | synaptic transmission after LFS (magnitude of Aβ1-42-induced LTD) [1] | performance (discrimination index) in episodic-like OPC task (C57/BL6 mice) | basal synaptic transmission [1] | synaptic transmission after subthreshold LFS (LTD), Aβ1-42 alone ([1]; vehicle-treated slices 94±5.6%) |
| --- | --- | --- | --- | --- |
| leptin: the metabolic hormone leptin, whole (full length) leptin molecule; human leptin from Sigma in SH-SY5Y work | 101±5.3 % of baseline | enhanced performance on the task relative to the control group | – | – |
| leptin (22-56): leptin fragment amino acids 22-56 (Bachem), comparison fragment (VPIQKVQDDTKTLIKTIVTRINDISHTQSVSSKQK; UniProt P41159 22-56, looked up, fragment) [reference compound] | 73±4.0 % of baseline | – | no significant effect on basal synaptic transmission | – |
| SCSLPQTSGLQKPES (listed as Mus musculus) [leptin (116-130)] | 94±5.2 % of baseline | enhanced performance on the task relative to the control group | no significant effect on basal synaptic transmission | – |
| Aβ1-42: amyloid beta 1-42, toxin used in the AD models [reference compound] | – | – | – | 73±3.8 % of baseline |
